Experimental data reported in patent US11180475B2, “Crystal form I of a 5-aminopyrazole carboxamide compound as BTK inhibitor” (SinoMab BioScience Limited, priority 2017, dated 2021).
pIC50: −log10 of the molar value.

Assays:
Recombinant Btk = Recombinant Btk (Homo sapiens, UniProt Q06187); assay: Kinase activity (BTK) inhibition assay, TR-FRET; format: biochemical; settings: read-out: IC50, inhibitory effect on BTK kinase activity
Experimental: The inhibitory effects of compound (R)-5-amino-3-(4-((5-chloropyridin-2-yl)oxy)phenyl)-1-(4-cyano-4-azaspiro[2.5]oct-6-yl)-1H-pyrazole-4-carboxamide (I) on BTK kinase activity were tested in an assay based on a time resolved fluorescence resonance energy transfer (TR-FRET) method. Recombinant Btk was pre-incubated with the compound disclosed herein in an assay buffer containing 50 mM Tris pH 7.4, 10 mM MgCl2, 2 mM MnCl2, 0.1 mM EDTA, 1 mM DTT, 20 nM SEB, 0.1% BSA, 0.005% tween-20 at room temperature for 1 hour. The reaction was initiated by the addition of ATP (at the ATP Km concentration) and the peptide substrate (Biotin-[…]-NH2). After incubation at room temperature for 1 hour, an equal volume of stop solution containing 50 mM HEPES pH 7.0, 800 mM KF, 20 mM EDTA, 0.1% BSA, p-Tyr66 antibody linked with Eu cryptate and streptavidin-labeled XL665 was added to stop the reaction. The plate was incubated at room temperature for an additional hour and then the TR-FRET signal was read on a BMG PHERAstar FS instrument (ex337 nm, em 620 nm/665 nm). Based on the ratio of the signal of fluorescence at 615 nm to 665 nm, the residual enzyme activity was calculated with an increased compound concentration. IC50 of each compound was obtained by fitting the data to the four-parameter equation of Graphpad Prism software.

hERG = hERG (Homo sapiens, UniProt Q12809); assay: hERG binding assay (Dofetillide method); settings: read-out: IC50 for hERG inhibition
Description: The IC50 value of a compound for hERG inhibition can be determined according to the method described in the patent application US20050214870 A1.

Pharmacokinetics in rats = format: in vivo; settings: rat, plasma, oral; male SD rats, p.o. 10 mg/kg vs i.v. 2 mg/kg
Experimental: 1. Male SD rats (HFK) were acclimatized in the laboratory for 7 days after arrival.
2. […], 3 animals in each group. One group was dosed by oral gavage (p.o.), and the other group was dosed by tail vein injection (i.v.). Rats in the p.o. group were fasted overnight before drug administration.
3. After drug administration, blood samples were collected from the rats via the posterior orbital venous plexus approach at the following time points: I.V.: (before drug administration), 0.08 hours, 0.25 hours, 0.5 hours, 1 hour, 2 hours, 4 hours, 8 hours, 24 hours; P.O.: 0.08 hour, 0.25 hour, 0.5 hour, 1 hour, 2 hours, 4 hours, 8 hours, 24 hours. About 300 μl of blood were collected at each collection time point.
4. The collected blood samples were centrifuged at 12000 rpm for 5 minutes at 4° C., and then the upper plasma samples were collected and stored in a refrigerator at −20° C.
6. […]
The pharmacokinetic parameters were calculated using the pharmacokinetic professional software WinNonlin [Model: Phoenix™ WinNonlin® 6.1; Manufacturer: Pharsight Corporation]. […]

[1] = tested on: B cells in human whole blood; assay: Inhibition assay on human whole blood B cells (CD69); format: cell-based; settings: B-cell, anti-human IgM F(ab')2 stimulation 20 hours, read-out: IC50, inhibitory activity on B cells in human whole blood
Experimental: Human whole blood (hWB) was obtained from healthy volunteers and blood was collected by venipuncture into a heparin sodium-anticoagulant Vacutainer tube. Test compounds were diluted 10 times in PBS to the required initial drug concentration), followed by three-fold serial dilutions with 10% DMSO in PBS to obtain a 9-point dose response curve. 5.5 μL of each diluted compound was added to the aiil 96-well V-bottom plate in duplicate; 5.5 μL of 10% DMSO in PBS was added to control and non-stimulated wells. Human whole blood (100 μL) was added to each well, and after mixing, the plates were incubated for 30 minutes at 37° C. and in 5% CO2, 100% humidity. An anti-human IgM F(ab′)2 (Southern Biotech) (10 μL of 500 μg/mL solution, 50 μg/mL final concentration) was added to each well (except for non-stimulated wells) with vortexing, and the plate was further incubated for another 20 hours. After 20-hour incubation, samples were incubated with 20 μL of fluorescent probe-labeled APC mouse anti-human CD69 (BD Pharmingen) for 30 minutes at 37° C., 5% CO2, 100% humidity. Induced controls, unstained, and single-stained samples were included for compensation and initial voltage settings. […] Results were initially analyzed using FACS analysis software (Flow Jo). The IC50 values were then calculated using XLfit v3, Equation 201.

[2] = tested on: five CYP450 enzymes in human liver microsomes; assay: Inhibition of CYP enzymes, cocktail probe substrates; format: in vitro ADME; settings: CYP1A2, CYP2D6, CYP2C9, CYP2C19, CYP3A4
Experimental: METHOD: This experiment simultaneously determined the inhibitory effects of a compound on five CYP450 enzymes in human liver microsomes using the cocktail probe substrates approach. The human microsomes were from BD Gentest.
The reaction was carried out in 100 mM of phosphate buffer, with a total volume of 200 μL. The concentration of microsomes in the reaction system was 0.25 mg/mL, and the concentration of the test compound was 20 μM, 6.67 μM, 2.22 μM, 0.74 μM, and 0.25 μM. The specific probe substrates and concentration were phenacetin (CYP1A2) 40 μM, dextromethorphan (CYP2D6) 5 μM, diclofenac (CYP2C9) 10 μM, S-mephenytoin (CYP2C19) 40 μM, testosterone (CYP3A4) 80 μM, respectively. The mixture was pre-incubated in a 37° C. thermostatic shaker for 5 minutes, and the NADPH-generating system (containing 1.3 mM NADP+, 3.3 mM glucose 6-phosphate, […] glucose 6-phosphate dehydrogenase, 3.3 mM MgCl2) was added to start the reaction. After incubation for 45 minutes, the reaction was stopped by adding an equal volume of acetonitrile. The tube was vortexed and centrifuged at 13,000 rpm. The resulting supernatant was subjected to LC-MS-MS to determine the amount of produced metabolites. […] The final result of this experiment is the calculated half inhibitory concentration IC50 value.

T cells = assay: T cell inhibition assay (CD69, flow cytometry); format: cell-based; settings: Homo sapiens, 1 hour exposure, washed, anti-CD3/CD28 beads 18 hours, read-out: IC50, inhibitory activity on T cells
Experimental: T cells were obtained by purification of healthy donor blood through negative selections using the RosetteSep Human T Cell Enrichment Mix. Cells were plated in a growth medium (10% RPMI+10% fetal bovine serum) and the inhibitor was added at specified concentrations. After incubating for 1 hour at 37° C., the cells were washed three times, and each wash was used for 10-fold dilution in the growth medium. The cells were then stimulated with anti-CD3/CD28 coated beads (bead/cell ratio 1:1) for 18 hours at 37° C. Cells were subsequently stained with an anti-CD69-PE antibody and analyzed by flow cytometry using standard conditions. According to the above experimental methods, compound (R)-5-amino-3-(4-((5-chloropyridin-2-yl)oxy)phenyl)-1-(4-cyano-4-azaspiro[2.5]oct-6-yl)-1H-pyrazole-4-carboxamide (I) has very low or no inhibitory activity on T cells, with an IC50 values higher than 4000 nM.

[3] = tested on: diffuse large B-cell lymphoma cell line TMD-8; assay: Pharmacodynamic assay, TMD-8 xenograft; format: in vivo; settings: NOD.SCID mice, p.o. daily for 21 days
Experimental: Severe immunodeficiency NOD.SCID mice were purchased from Beijing Vital River Laboratory Animal Technology Co., Ltd., and were housed in SPF grade animal room. After TMD-8 cells were cultured to the sufficient amount, the cells were collected by centrifugation and washed twice with PBS. Finally, the cells were resuspended in serum-free RPMI 1640 medium and Matrigel (1:1 v/v). 0.2 ml of cell suspension was injected subcutaneously on the right flank of each mouse using 1 ml syringe and 25G syringe needle. The tumor size was measured with a caliper after about one week post injection. The tumor volume was calculated according to the following formula: tumor volume=(length×width^2)/2. When the tumor volume reached about 100-200 mm^3, the mice were grouped and p.o. administered daily for 21 days.

[4] = Stability study in liver microsomes; format: in vitro ADME, human, dog, rat, and mouse; settings: 60 minutes incubation, 37° C., liver microsomes of various species
Experimental: 1. Compound (R)-5-amino-3-(4-((5-chloropyridin-2-yl)oxy)phenyl)-1-(4-cyano-4-azaspiro[2.5]oct-6-yl)-1H-pyrazole-4-carboxamide (I) was dissolved in acetonitrile to prepare a stock solution having a concentration of 0.5 mM.
2. 2 μL of stock solution was added to a 1.5 ml centrifuge tube, and then 148 μL of phosphate buffer (100 mM, pH 7.4) and 10 μL of liver microsome suspension (the protein concentration was 20 mg/ml) [BD Gentest] were added. The liver microsomes were derived from the species of human, dog, rat, and mouse; The control group was added with 158 μL of phosphate buffer (100 mM, pH 7.4).
3. The mixture obtained in step 2 was pre-incubated in a 37° C. water bath for 3 minutes; then 40 μL of NADPH generating system (containing NADP+: 6.5 mM, glucose 6-phosphate: 16.5 mM, MgCl2: 16.5 mM, glucose 6-phosphate dehydrogenase: 2 U/ml) was added to initiate the reaction. The reaction system was incubated in a 37° C. water bath for 1 hour.
4. After the reaction was carried out for 1 hour, the centrifuge tube was removed from the water bath, and the reaction was terminated by adding 400 μL of acetonitrile, followed by vortexing for 3 minutes. […]
6. After 60 minutes of incubation, the percentage of remaining drug in the incubation system was calculated as follows: Remaining Drug (%)=Cr/C0×100%

normal human B cells = assay: B cell inhibition assay (CD69, flow cytometry); format: cell-based; settings: 1 hour exposure, washed off, IgM F(ab')2 stimulation 18 hours, read-out: IC50, inhibitory activity on B cells
Experimental: Temporary exposure to a BTK inhibitor in vitro is sufficient to inhibit B cell activation in normal human B cells.
B cells were obtained by purification from healthy donor blood through negative selection using the RosetteSep human B Cell Enrichment Mix. Cells were plated in a growth medium (10% RPMI+10% fetal bovine serum) and the inhibitor was added at specified concentrations. After incubation at 37° C. for 1 hour, the cells were washed three times, and each wash was used for 8-fold dilution in the growth medium. The cells were then stimulated with 10 μg/mL IgM F(ab′)2 at 37° C. for 18 hours. Cells were subsequently stained with an anti-CD69-PE antibody and analyzed by flow cytometry using standard conditions.

Recombinant Btk, sequence (Q06187 whole entry): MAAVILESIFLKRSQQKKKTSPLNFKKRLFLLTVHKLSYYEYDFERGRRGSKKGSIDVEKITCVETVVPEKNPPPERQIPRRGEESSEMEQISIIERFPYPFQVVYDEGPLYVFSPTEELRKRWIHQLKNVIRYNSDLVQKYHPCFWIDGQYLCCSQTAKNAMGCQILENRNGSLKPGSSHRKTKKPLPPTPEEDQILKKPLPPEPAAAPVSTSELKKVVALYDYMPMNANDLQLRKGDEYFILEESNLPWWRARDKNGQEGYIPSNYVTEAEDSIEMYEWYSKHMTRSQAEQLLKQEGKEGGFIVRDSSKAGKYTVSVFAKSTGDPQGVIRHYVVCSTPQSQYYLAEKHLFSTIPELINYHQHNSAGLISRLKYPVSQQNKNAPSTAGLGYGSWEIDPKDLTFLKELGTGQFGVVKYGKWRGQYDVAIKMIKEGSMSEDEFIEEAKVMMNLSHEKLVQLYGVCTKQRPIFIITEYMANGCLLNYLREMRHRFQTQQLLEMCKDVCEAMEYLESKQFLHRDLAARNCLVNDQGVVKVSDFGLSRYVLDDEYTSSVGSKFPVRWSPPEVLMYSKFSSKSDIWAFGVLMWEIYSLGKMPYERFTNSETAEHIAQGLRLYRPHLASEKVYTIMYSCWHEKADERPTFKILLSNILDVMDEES
hERG, sequence (Q12809 whole entry): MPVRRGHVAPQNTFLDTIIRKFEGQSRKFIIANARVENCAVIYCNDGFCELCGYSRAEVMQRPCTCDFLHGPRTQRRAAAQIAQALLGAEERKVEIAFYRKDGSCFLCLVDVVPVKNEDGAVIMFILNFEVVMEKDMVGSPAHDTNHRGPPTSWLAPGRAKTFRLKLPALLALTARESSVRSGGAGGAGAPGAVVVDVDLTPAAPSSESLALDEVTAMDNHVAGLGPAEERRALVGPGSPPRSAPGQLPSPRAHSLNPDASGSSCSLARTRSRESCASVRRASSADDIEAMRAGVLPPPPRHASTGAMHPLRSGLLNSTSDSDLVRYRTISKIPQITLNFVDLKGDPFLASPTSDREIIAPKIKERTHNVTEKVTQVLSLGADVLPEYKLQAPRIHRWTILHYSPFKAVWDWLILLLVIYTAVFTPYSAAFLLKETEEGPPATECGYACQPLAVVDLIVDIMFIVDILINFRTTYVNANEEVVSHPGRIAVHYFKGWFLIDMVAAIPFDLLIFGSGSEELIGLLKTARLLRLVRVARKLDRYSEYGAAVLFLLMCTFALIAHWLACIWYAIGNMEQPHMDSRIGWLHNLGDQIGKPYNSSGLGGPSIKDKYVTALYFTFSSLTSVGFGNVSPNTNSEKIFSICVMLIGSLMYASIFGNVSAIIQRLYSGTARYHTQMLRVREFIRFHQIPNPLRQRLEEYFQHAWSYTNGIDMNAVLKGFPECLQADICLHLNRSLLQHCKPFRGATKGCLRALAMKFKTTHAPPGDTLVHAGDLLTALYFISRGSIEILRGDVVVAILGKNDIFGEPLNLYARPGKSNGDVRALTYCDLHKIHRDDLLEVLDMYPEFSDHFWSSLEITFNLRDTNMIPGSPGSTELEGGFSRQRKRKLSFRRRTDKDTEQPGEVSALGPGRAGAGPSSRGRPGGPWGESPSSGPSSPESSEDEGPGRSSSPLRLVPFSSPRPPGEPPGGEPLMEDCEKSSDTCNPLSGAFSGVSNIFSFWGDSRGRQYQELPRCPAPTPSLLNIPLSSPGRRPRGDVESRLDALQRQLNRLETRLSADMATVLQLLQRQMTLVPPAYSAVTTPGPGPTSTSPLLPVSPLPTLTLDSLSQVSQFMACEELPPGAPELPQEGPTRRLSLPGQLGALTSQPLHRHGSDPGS

Structure (SMILES): N#CN1C[C@H](n2nc(-c3ccc(Oc4ccc(Cl)cn4)cc3)c(C(N)=O)c2N)CCC12CC2 [Compound I, (R)-5-amino-3-(4-((5-chloropyridin-2-yl)oxy)phenyl)-1-(4-cyano-4-azaspiro[2.5]oct-6-yl)-1H-pyrazole-4-carboxamide]
- pIC50 (Recombinant Btk): > 7.00
- pIC50 (hERG): < 6.00
- bioavailability (Pharmacokinetics in rats): > 40%
- pIC50 [1]: > 6.70
- inhibitory effect on various CYP enzymes [2]: very low or no inhibitory effect
- pIC50 (T cells): < 5.40
- inhibition of TMD-8 tumor growth in vivo [3]: significantly inhibited the growth
- Remaining Drug (%), residual percentage in liver microsomes [4]: > 30%
- pIC50 (normal human B cells): > 8.00
